One data set deals with PSMA (Homo sapiens, UniProt Q04609). Description: Measurement of binding capacity: competition with [^125I]30 on 22RV1 cells. The following applies: 22RV1 cells; for IC50 / Ki: [^125I]30 0.1 nM, 37° C., 2 hours; for IC50: read-out: IC50; for Ki: read-out: Ki value. Also noted: host or cells: 22RV1 human prostate cancer cells. On the procedure: To confirm the binding capacity of the compounds of the present invention to PSMA, the following experiment was performed.
RPMI1640 supplemented with 1% BSA (bovine serum albumin) was used as a buffer solution.
[^125I]30 (0.1 nM) obtained in Comparative Example 1 was added to a vessel containing 22RV1 cells (5×10^4), to which the compound represented by formula 1 was loaded at 9 concentrations (1.00×10^−4˜1.00×10^−12 M), followed by stirring at 37° C. for 2 hours. Upon completion of the stirring, the vessel was washed with PBS solution (2 mL) three times, and then the radioactivity was measured using a gamma counter (2480 WIZARD2 Gamma Counter PerkinElmer Co., MA). The 50% inhibition concentration (IC50) for each compound was calculated using a GraphPad Prism program (GraphPad Software, Inc., CA)
(Maresca, K. P. et al., 2009, J. Med. Chem. 52, 347-357)

Another data set relates to PSMA^+ PC-3 PIP tumors. Description: MicroPET/CT imaging of mice transplanted with prostate cancer cell lines. The data set is classed as in vivo, nude mouse. The method, then: A tumor model was prepared by subcutaneously injecting PSMA^+ PC-3 PIP cells (a human prostate cancer cell line) to the right side of the nude mouse hind leg. Each of the ^68Ga-labeled compounds [^68Ga]1e, [^68Ga]1g, [^68Ga]1h and [^68Ga]1k was intravenously injected with 5.5 to 6.5 MBq (148-175 μCi/200 μL), and PET/CT images were obtained using small animal INVEON PET/CT (Siemens medical solutions, Knoxville, USA) for 60 minutes. After 150 minutes, 270 minutes, and 390 minutes, PET/CT images were also obtained for 30 minutes. The obtained PET/CT image results were quantitatively analyzed using Inveon™ Research Workplace (IRW).
FIGS. 1, 2, 3, and 4 are graphs showing the quantitative analysis results of MicorPET/CT images for [^68Ga]1e, [^68Ga]1g, [^68Ga]1h, and [^68Ga]1k in % injected dose (ID)/g, and summarized in Tables 3, 4, 5, and 6, respectively.

Consider seven compounds from US11931431B2, “PSMA-targeted radiopharmaceutical for diagnosing and treating prostate cancer” (FUTURECHEM CO., LTD, priority 2018, dated 2024).

PSMA, sequence (Q04609 whole entry): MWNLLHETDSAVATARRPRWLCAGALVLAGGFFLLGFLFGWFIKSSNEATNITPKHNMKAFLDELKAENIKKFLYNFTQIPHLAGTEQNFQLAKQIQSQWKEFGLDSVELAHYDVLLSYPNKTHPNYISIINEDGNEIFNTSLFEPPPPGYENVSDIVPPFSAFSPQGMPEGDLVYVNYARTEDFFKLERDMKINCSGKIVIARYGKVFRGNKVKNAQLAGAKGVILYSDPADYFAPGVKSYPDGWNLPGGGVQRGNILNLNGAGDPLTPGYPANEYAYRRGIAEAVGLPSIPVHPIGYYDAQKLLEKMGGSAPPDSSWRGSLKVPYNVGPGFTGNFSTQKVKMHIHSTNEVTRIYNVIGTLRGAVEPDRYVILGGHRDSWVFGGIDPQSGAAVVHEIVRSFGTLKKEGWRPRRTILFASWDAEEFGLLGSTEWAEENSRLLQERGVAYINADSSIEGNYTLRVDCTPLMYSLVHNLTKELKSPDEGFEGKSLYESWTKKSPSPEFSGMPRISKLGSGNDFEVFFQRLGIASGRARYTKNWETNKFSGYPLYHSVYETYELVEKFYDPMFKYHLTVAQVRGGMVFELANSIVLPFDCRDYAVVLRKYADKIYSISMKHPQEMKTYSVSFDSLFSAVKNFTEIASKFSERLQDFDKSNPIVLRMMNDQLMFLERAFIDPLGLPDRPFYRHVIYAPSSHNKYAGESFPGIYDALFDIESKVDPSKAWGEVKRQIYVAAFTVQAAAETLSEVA

In the case of `O=C(O)CC[C@H](NC(=O)N[C@@H](CCCCN(CC(=O)O)C(=O)COCCNC(=O)[C@H](CCCCNC(=O)CCCc1ccc(I)cc1)NC(=O)CN1CCN2CCN3CCN(CC1)CC(=O)[O][Ga]([O]C(=O)C2)[O]C(=O)C3)C(=O)O)C(=O)O` [Ga-1k], on PSMA, the 50% inhibitory concentration (IC50) came to 63.9 ± 6.09 nM and the Ki is 12.7 ± 1.07 nM.

Consider `O=C(O)CC[C@H](NC(=O)N[C@@H](CCCCN(CCC(=O)O)C(=O)CCc1cn(CCOCCNC(=O)CN2CCN3CCN4CCN(CC2)CC(=O)[O][Ga]([O]C(=O)C3)[O]C(=O)C4)nn1)C(=O)O)C(=O)O` [Ga-1d], for which, on PSMA, the IC50 was 75.3 ± 18.6 nM and the Ki is 18.6 ± 4.6 nM.

As to `O=C(O)CC[C@H](NC(=O)N[C@@H](CCCCN(CC(=O)O)C(=O)COCCOCCNC(=O)[C@H](CCCCNC(=O)CCCc1ccccc1)NC(=O)CN1CCN2CCN3CCN(CC1)CC(=O)[O][Ga]([O]C(=O)C2)[O]C(=O)C3)C(=O)O)C(=O)O` [Ga-1f], at PSMA, the “binding force / binding capacity to PSMA, in words” value was “higher binding capacity than the compound Ga-1e”; the IC50 came out at 25.7 ± 5.06 nM; the inhibition constant Ki worked out at 8.12 ± 1.6 nM.

As for `O=C(O)CCC(NC(=O)NC(CCCCN(CC(=O)O)C(=O)COCCNC(=O)C(CCCCNC(=O)CCCc1ccc(I)cc1)NC(=O)CN1CCN2CCN3CCN(CC1)CC(=O)[O][68Ga]([O]C(=O)C2)[O]C(=O)C3)C(=O)O)C(=O)O` (centres unmarked) [[^68Ga]1k], the “intake of mouse organ: Bladder” value worked out at 4.12 ± 0.45 % ID/g in the data set with PSMA^+ PC-3 PIP tumors (10 min after injection); 4.68 ± 0.22 % ID/g in the data set on PSMA^+ PC-3 PIP tumors (20 min after injection); 4.68 ± 0.45 % ID/g in the data set on PSMA^+ PC-3 PIP tumors (30 min after injection); 4.75 ± 0.21 % ID/g in the data set with PSMA^+ PC-3 PIP tumors (40 min after injection); 4.83 ± 0.18 % ID/g in the data set with PSMA^+ PC-3 PIP tumors (50 min after injection); 4.81 ± 0.24 % ID/g with PSMA^+ PC-3 PIP tumors (60 min after injection). The “intake of mouse organ: Bladder” value in the data set with PSMA^+ PC-3 PIP tumors (150 min after injection) was determined as 18.10 ± 6.51 % ID/g; in the data set on PSMA^+ PC-3 PIP tumors (270 min after injection), 20.10 ± 4.53 % ID/g; in the data set on PSMA^+ PC-3 PIP tumors (390 min after injection), 14.25 ± 0.64 % ID/g. Also, the “intake of mouse organ: Heart” value in the data set with PSMA^+ PC-3 PIP tumors (10 min after injection) came to 21.67 ± 0.44 % ID/g; in the data set with PSMA^+ PC-3 PIP tumors (20 min after injection), 20.10 ± 0.29 % ID/g; in the data set with PSMA^+ PC-3 PIP tumors (30 min after injection), 18.33 ± 0.13 % ID/g; with PSMA^+ PC-3 PIP tumors (40 min after injection) it was 17.22 ± 0.35 % ID/g; in the data set on PSMA^+ PC-3 PIP tumors (50 min after injection) it was 16.06 ± 0.38 % ID/g; in the data set on PSMA^+ PC-3 PIP tumors (60 min after injection), 15.03 ± 0.27 % ID/g. The entries for the “intake of mouse organ: Heart” value in the data set on PSMA^+ PC-3 PIP tumors (150 min after injection), with PSMA^+ PC-3 PIP tumors (270 min after injection) and in the data set on PSMA^+ PC-3 PIP tumors (390 min after injection) were 7.85 ± 1.63 % ID/g, 5.10 ± 0.85 % ID/g and 3.80 ± 1.41 % ID/g, respectively. Moreover, the “intake of mouse organ: Kidney” value in the data set with PSMA^+ PC-3 PIP tumors (10 min after injection) came to 11.16 ± 1.35 % ID/g; in the data set on PSMA^+ PC-3 PIP tumors (20 min after injection), 11.21 ± 1.62 % ID/g; in the data set on PSMA^+ PC-3 PIP tumors (30 min after injection) it was 10.89 ± 1.36 % ID/g; in the data set with PSMA^+ PC-3 PIP tumors (40 min after injection) it was 11.06 ± 1.02 % ID/g; with PSMA^+ PC-3 PIP tumors (50 min after injection) it was 10.80 ± 1.20 % ID/g; in the data set with PSMA^+ PC-3 PIP tumors (60 min after injection) it was 10.96 ± 1.18 % ID/g. Moreover, the “intake of mouse organ: Kidney” value with PSMA^+ PC-3 PIP tumors (150 min after injection) worked out at 11.40 ± 1.13 % ID/g; with PSMA^+ PC-3 PIP tumors (270 min after injection), 9.25 ± 0.78 % ID/g; with PSMA^+ PC-3 PIP tumors (390 min after injection) it was 7.70 ± 0.71 % ID/g. Besides, the “intake of mouse organ: Liver” value in the data set on PSMA^+ PC-3 PIP tumors (10 min after injection) was 11.99 ± 4.72 % ID/g; in the data set with PSMA^+ PC-3 PIP tumors (20 min after injection) it was 11.09 ± 3.46 % ID/g; with PSMA^+ PC-3 PIP tumors (30 min after injection), 10.04 ± 2.73 % ID/g; in the data set with PSMA^+ PC-3 PIP tumors (40 min after injection) it was 9.31 ± 2.32 % ID/g; with PSMA^+ PC-3 PIP tumors (50 min after injection), 8.73 ± 2.11 % ID/g; in the data set with PSMA^+ PC-3 PIP tumors (60 min after injection) it was 8.22 ± 1.79 % ID/g. The results for the “intake of mouse organ: Liver” value in the data set on PSMA^+ PC-3 PIP tumors (150 min after injection), with PSMA^+ PC-3 PIP tumors (270 min after injection) and with PSMA^+ PC-3 PIP tumors (390 min after injection) were 5.00 ± 1.41 % ID/g, 3.60 ± 0.71 % ID/g and 2.25 ± 0.64 % ID/g, respectively. For the same compound, the “intake of mouse organ: Muscle” value in the data set on PSMA^+ PC-3 PIP tumors (10 min after injection) worked out at 2.26 ± 0.75 % ID/g; in the data set on PSMA^+ PC-3 PIP tumors (20 min after injection) it was 2.91 ± 1.21 % ID/g; in the data set on PSMA^+ PC-3 PIP tumors (30 min after injection), 3.09 ± 0.91 % ID/g; with PSMA^+ PC-3 PIP tumors (40 min after injection) it was 3.32 ± 1.20 % ID/g; in the data set on PSMA^+ PC-3 PIP tumors (50 min after injection), 3.24 ± 1.07 % ID/g; in the data set with PSMA^+ PC-3 PIP tumors (60 min after injection) it was 3.49 ± 1.28 % ID/g. Moreover, the “intake of mouse organ: Muscle” value in the data set with PSMA^+ PC-3 PIP tumors (150 min after injection) is on record as 2.75 ± 1.20 % ID/g; in the data set on PSMA^+ PC-3 PIP tumors (270 min after injection) it was 2.15 ± 0.78 % ID/g; with PSMA^+ PC-3 PIP tumors (390 min after injection) it was 1.20 ± 0.56 % ID/g. In addition, the “intake of mouse organ: Tumor (PIP)” value in the data set on PSMA^+ PC-3 PIP tumors (10 min after injection) was 1.85 ± 0.25 % ID/g; in the data set on PSMA^+ PC-3 PIP tumors (20 min after injection), 3.22 ± 0.38 % ID/g; with PSMA^+ PC-3 PIP tumors (30 min after injection), 3.94 ± 0.38 % ID/g; with PSMA^+ PC-3 PIP tumors (40 min after injection), 4.40 ± 0.36 % ID/g; in the data set with PSMA^+ PC-3 PIP tumors (50 min after injection), 5.03 ± 0.33 % ID/g; with PSMA^+ PC-3 PIP tumors (60 min after injection), 5.45 ± 0.16 % ID/g. For the same compound, the figures for the “intake of mouse organ: Tumor (PIP)” value with PSMA^+ PC-3 PIP tumors (150 min after injection), in the data set on PSMA^+ PC-3 PIP tumors (270 min after injection) and with PSMA^+ PC-3 PIP tumors (390 min after injection) were 11.00 ± 2.12 % ID/g, 15.70 ± 4.24 % ID/g and 18.25±4.17 % ID/g, respectively. Besides, the “excretion, in words” value in the data set with PSMA^+ PC-3 PIP tumors (MicroPET/CT) was “rapidly excreted out of the body”. Also, the “residence time in the blood, in words” value with PSMA^+ PC-3 PIP tumors (MicroPET/CT) is given as “residence time in the blood was increased”. The “tumor intake over time, in words” value in the data set with PSMA^+ PC-3 PIP tumors (MicroPET/CT) is “tumor intake continued to increase after 390 minutes”.

As to `O=C(O)CC[C@H](NC(=O)N[C@@H](CCC(=O)N(CCOCCOCCNC(=O)CN1CCN2CCN3CCN(CC1)CC(=O)[O][Ga]([O]C(=O)C2)[O]C(=O)C3)CCC(=O)O)C(=O)O)C(=O)O` [Ga-1o], at PSMA, the IC50 amounted to 1140 ± 82.4 nM and the Ki is 282 ± 20.4 nM.

Regarding `O=C(O)CC[C@H](NC(=O)N[C@@H](CCCCNC(=O)N(Cc1cn(CCOCCNC(=O)CN2CCN3CCN4CCN(CC2)CC(=O)[O][Ga]([O]C(=O)C3)[O]C(=O)C4)nn1)c1ccncc1)C(=O)O)C(=O)O` [Ga-1b], at PSMA, the IC50 was determined as 237 ± 47.1 nM and the Ki is 18.7 ± 1.87 nM.

As for `Cc1ccc(CCCC(=O)NCCCC[C@H](NC(=O)CN2CCN3CCN4CCN(CC2)CC(=O)[O][Ga]([O]C(=O)C3)[O]C(=O)C4)C(=O)NCCOCCOCC(=O)N(CCCC[C@H](NC(=O)N[C@@H](CCC(=O)O)C(=O)O)C(=O)O)CC(=O)O)cc1` [Ga-1g], at PSMA, the “binding force / binding capacity to PSMA, in words” value is listed as “higher binding capacity than the compound Ga-1e”; the half-maximal inhibitory concentration (IC50) was 18.4 ± 0.35 nM; the Ki is 5.82 ± 0.11 nM.
